According to ChEMBL document CHEMBL1142899, “4-amino-5-aryl-6-arylethynylpyrimidines: structure-activity relationships of non-nucleoside adenosine kinase inhibitors” (Bioorg Med Chem, 2007):
The source made the active and inactive calls. The calls are words filed in the database; no cut-off is given here.

Columns and labels:
Adenosine kinase [1] = molecular target: T1, Adenosine kinase (Homo sapiens, UniProt P55263); test: Inhibition of cytosolic adenosine kinase
Adenosine kinase [2] = molecular target: T1, Adenosine kinase; test: Inhibition of adenosine kinase in intact cells assessed as adenosine phosphorylation; assay type: functional, cell-based
Mus musculus = test: Analgesic activity in mouse assessed as maximal protective effect at 30 umol/kg, ip by hot plate test; assay type: functional
Rattus norvegicus [3] = test: Reduction of formalin-induced nociception in rat at 10 umol/kg, ip by paw flinching test; assay type: functional; design: scale not given: the % may be the effect or the level left
Rattus norvegicus [4] = species on record: Rattus norvegicus; test: Analgesic activity in spinal nerve ligated Sprague-Dawley rat by chung assay neuropathic pain animal model; assay type: functional, organism-based
[5] = Half life in rat at 5 umol/kg, iv; assay type: ADME, organism-based; settings: in vivo
[6] = Volume of distribution in rat at 5 umol/kg, iv; assay type: ADME, organism-based; settings: in vivo, read-out: Vbeta
[7] = Plasma clearance in rat at 5 umol/kg, iv; assay type: ADME, organism-based
[8] = Cmax in rat at 5 umol/kg, po; assay type: ADME, organism-based; design: dose 5 umol/kg, route oral; settings: in vivo
[9] = Bioavailability in rat at 5 umol/kg, po; assay type: ADME, organism-based; settings: in vivo
[10] = Metabolic stability in rat hepatocyte after 24 hrs; assay type: ADME, cell-based; settings: hepatocytes, read-out: Stability
[11] = Metabolic stability in human liver microsomes after 1 hr; assay type: ADME, Microsome; settings: read-out: Stability
Rattus norvegicus [12] = test: Reduction of formalin-induced nociception in rat upto 30 umol/kg, ip by paw flinching test; assay type: functional, organism-based

T1 sequence (P55263 whole entry): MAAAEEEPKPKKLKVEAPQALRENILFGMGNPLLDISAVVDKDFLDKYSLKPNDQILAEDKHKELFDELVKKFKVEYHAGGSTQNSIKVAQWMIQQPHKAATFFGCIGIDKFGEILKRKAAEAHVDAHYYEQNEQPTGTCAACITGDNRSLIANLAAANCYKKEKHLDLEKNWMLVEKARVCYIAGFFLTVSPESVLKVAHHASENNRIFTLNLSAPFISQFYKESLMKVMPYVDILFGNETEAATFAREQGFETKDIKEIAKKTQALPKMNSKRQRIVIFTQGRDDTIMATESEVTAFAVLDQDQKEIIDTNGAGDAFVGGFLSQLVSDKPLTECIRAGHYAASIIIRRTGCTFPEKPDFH

SMILES	IC50 (Adenosine kinase [1]) [nM]	IC50 (Adenosine kinase [2]) [nM]	further results
CN(C)c1cc(N2CCOCC2)ncc1C#Cc1ncnc(N)c1-c1ccc2c(c1)OCO2	72	215	
Nc1ncnc(C#Cc2ccc(N3CCOCC3)nc2)c1-c1ccc(Cl)cc1	3	58	Activity (Mus musculus): 100%; Activity (Rattus norvegicus [3]): 29%; Activity (Rattus norvegicus [4]): inactive
CN(C)c1ccc(C#Cc2ncnc(N)c2-c2ccccc2Cl)cc1	75	700	
Nc1ncnc(C#Cc2ccc(N3CCOCC3)nc2)c1-c1cc2ccccc2s1	0.4	100	Activity (Rattus norvegicus [3]): 49%
CN(C)c1ccc(C#Cc2ncnc(NCCc3c[nH]cn3)c2-c2ccc(Cl)cc2)cc1	80	> 1000	
Nc1ncnc(C#Cc2ccc(N3CCOCC3)nc2)c1-c1ccc2c(c1)OCO2	10	120	Activity (Rattus norvegicus [3]): 47%
Nc1ncnc(C#Cc2ccc(N3CCOCC3)nn2)c1-c1ccc(Cl)cc1	45	700	
CN(C)c1ccc(-c2c(N)ncnc2C#Cc2ccc(N3CCOCC3)nc2)cc1	2		Activity (Mus musculus): 100%; Activity (Rattus norvegicus [3]): 44%; half-life [5]: 30 min; Vd [6]: 0.7 L/kg; clearance [7]: 16.7 mL/min/kg; Cmax [8]: 80 ng/mL; bioavailability [9]: 9%; remaining at 24 h [10]: 21%; remaining at 1 h [11]: 74%
CN(C)c1ccc(C#Cc2ncnc(N3CCNCC3)c2-c2ccc(Cl)cc2)cc1	8	> 1000	
COc1ccc(-c2c(N)ncnc2C#Cc2ccc(N(C)C)cc2)cc1OC	20	500	
CN(C)c1ccc(C#Cc2ncnc(NCCc3c[nH]c4ccccc34)c2-c2ccc(Cl)cc2)cc1	38	> 1000	
CN(C)c1ccc(C#Cc2cc(N)ncn2)cc1	> 1000		
COCCN(C)c1cc(N2CCOCC2)ncc1C#Cc1ncnc(N)c1-c1ccc2c(c1)OCO2	101	198	
C#Cc1ncnc(N)c1-c1ccc2c(c1)OCO2	> 1000		
CN(C)c1ccc(C#Cc2ncnc(N)c2C(c2ccccc2)c2ccccc2)cc1	600		
CN(C)c1cc(C#Cc2ncnc(N)c2-c2ccc3c(c2)OCO3)cnc1N1CCOCC1	26	161	Activity (Rattus norvegicus [12]): inactive
Cc1nc(N)c(-c2ccccc2)c(C#Cc2ccc(N(C)C)cc2)n1	> 1000		
CN(C)c1ccc(C#Cc2ncnc(N)c2-c2ccc(Cl)cc2)cn1			Activity (Mus musculus): 73%; Activity (Rattus norvegicus [3]): 20%; Activity (Rattus norvegicus [4]): inactive
CN(C)c1ccc(C#Cc2ncnc(N)c2-c2ccc3c(c2)OCO3)cc1		250	

SMILES	IC50 (Adenosine kinase [1]) [nM]	IC50 (Adenosine kinase [2]) [nM]	further results
Nc1ncnc(C#Cc2cncc(N3CCOCC3)c2)c1-c1ccc(Cl)cc1	8	110	Activity (Rattus norvegicus [3]): 49%
CN(C)c1ccc(C#Cc2ncnc(N3CCOCC3)c2-c2ccc(Cl)cc2)cc1	6	970	
Nc1ncnc(C#Cc2ccc(N3CCOCC3)nc2)c1-c1ccsc1	38	212	
Nc1ncnc(C#Cc2ccc(N3CCOCC3)cc2)c1-c1ccc(Cl)cc1	17	275	Activity (Mus musculus): 67%; Activity (Rattus norvegicus [3]): 20%
CC(C)NC(=O)Nc1cc(C#Cc2ncnc(N)c2-c2ccc3c(c2)OCO3)cnc1N1CCOCC1	18	88	
CN(C)c1ccc(C#Cc2ncnc(N)c2-c2cccc(Cl)c2)cc1	10	550	
Nc1ncnc(C#Cc2cnc(N3CCOCC3)nc2)c1-c1ccc(Cl)cc1	8	200	Activity (Mus musculus): 100%; Activity (Rattus norvegicus [3]): 36%; Activity (Rattus norvegicus [4]): inactive
CN(C)c1ccc(C#Cc2ncnc(N)c2-c2ccccc2)cc1		> 1000	
CN(C)c1ccc(C#Cc2ncnc(N(C)C)c2-c2ccc(Cl)cc2)cc1	300	> 1000	
Cc1ccc(-c2c(N)ncnc2C#Cc2ccc(N(C)C)cc2)cc1	13	330	
COCCN(C)c1ccc(C#Cc2ncnc(N)c2-c2ccc(Cl)cc2)cn1	1	80	Activity (Rattus norvegicus [3]): 48%
Nc1ncnc(C#Cc2ccc(N3CCOCC3)nc2)c1-c1cc2ccccc2o1	1	123	Activity (Rattus norvegicus [3]): 36%
CN(C)c1ccc(C#Cc2ncnc(N)c2-c2ccc(N(C)C)cc2)cc1	5	240	
CN(C)c1ccc(C#Cc2cc(NCc3ccccc3)ncn2)cc1	> 1000		
Nc1ncnc(C#Cc2ccccn2)c1-c1ccc(Cl)cc1	500	> 1000	
CC(C)c1ccc(C#Cc2ncnc(N)c2-c2ccc(Cl)cc2)cc1	50	> 1000	
Nc1ncnc(C#Cc2ccc(N3CCOCC3)nc2)c1-c1cccs1	13	167	Activity (Rattus norvegicus [3]): 44%
Nc1ncnc2nc(-c3ccc(N4CCOCC4)nc3)cc(-c3cccc(Br)c3)c12			Vd [6]: 1 L/kg; Cmax [8]: 550 ng/mL
CC(C)(C)OC(=O)N1CCN(c2ccc(C#Cc3ncnc(N)c3-c3ccc(Cl)cc3)cn2)CC1	62	> 1000	
